One compound from article PMC12317361, “Pharmacological Inhibition of c‐Jun N‐Terminal Kinase Activity Exacerbates Liver Damage in Schistosoma mansoni Infected Mice” (Liver International, 2025) can be followed below.

This test deals with SmJNK (S. mansoni c-Jun N-terminal kinase) (Schistosoma mansoni, UniProt A0A3Q0KT26). Nature of the test: cellular thermal shift assay (CETSA), isothermal dose-response fingerprint in SmJNK-expressing Sf21 cells. It counts as cell-based.

Molecules are shown by their SMILES. pKd: −log10 of the molar value.

Sequence of SmJNK (S. mansoni c-Jun N-terminal kinase) (A0A3Q0KT26 entry or part of it): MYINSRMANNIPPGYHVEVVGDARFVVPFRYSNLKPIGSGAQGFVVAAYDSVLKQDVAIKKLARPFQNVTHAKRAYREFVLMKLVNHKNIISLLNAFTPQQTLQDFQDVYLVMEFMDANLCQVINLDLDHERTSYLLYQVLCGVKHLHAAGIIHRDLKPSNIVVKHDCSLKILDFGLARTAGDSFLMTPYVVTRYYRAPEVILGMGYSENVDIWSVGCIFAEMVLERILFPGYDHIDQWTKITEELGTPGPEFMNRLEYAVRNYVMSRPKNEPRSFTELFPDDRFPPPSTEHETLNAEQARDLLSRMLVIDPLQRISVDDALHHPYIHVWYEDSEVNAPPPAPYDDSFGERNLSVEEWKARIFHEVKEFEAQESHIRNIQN

`Oc1c2ccccc2c2c3c(cccc13)N=N2` [SP600125]: the pKd (as a rule, −log10 of the Kd, conventionally taken in molar units) was 6.19.
